These results are taken from US9944646B2, “Bicyclic azaheterocyclobenzylamines as PI3K inhibitors” (Incyte Corporation, priority 2012, dated 2018).

Structures are written as SMILES.

The target in this test is PI3Kδ (Homo sapiens (Human), UniProt O00329). Kind of test: PI3K Enzyme Assay (Example A2), [γ-33P]ATP filter plate. The format is biochemical. Here is the method:
Example A2: PI3K Enzyme Assay
Lipid kinase substrate, phosphoinositol-4,5-bisphosphate (PIP2), are purchased from Echelon Biosciences (Salt Lake City, Utah). PI3K isoforms α, β, δ and γ are purchased from Millipore (Bedford, Mass.). ATP, MgCl2, DTT, EDTA, MOPS and CHAPS are purchased from Sigma-Aldrich (St. Louis, Mo.).
The kinase reaction are conducted in clear-bottom 96-well plate from Thermo Fisher Scientific in a final volume of 24 μL. Inhibitors are first diluted serially in DMSO and added to the plate wells before the addition of other reaction components. The final concentration of DMSO in the assay is 0.5%. The PI3K assays are carried out at room temperature in 20 mM MOPS, pH 6.7, 10 mM MgCl2, 5 mM DTT and CHAPS 0.03%. The reaction mixture is prepared containing 50 µM PIP2, kinase and varying concentration of inhibitors. Reactions are initiated by the addition of ATP containing 2.2 μCi [γ-^33P]ATP to a final concentration of 1000 μM. The final concentration of PI3K isoforms α, β, δ and γ in the assay were 1.3, 9.4, 2.9 and 10.8 nM, respectively. Reactions are incubated for 180 minutes and terminated by the addition of 100 μL of 1 M potassium phosphate pH 8.0, 30 mM EDTA quench buffer. A 100 μL aliquot of the reaction solution are then transferred to 96-well Millipore MultiScreen IP […] PVDF filter plate (The filter plate is prewetted with 200 μL 100% ethanol, distilled water, and 1 M potassium phosphate pH 8.0, respectively). The filter plate is aspirated on a Millipore Manifold under vacuum and washed with 18×200 μL wash buffer containing 1 M potassium phosphate pH 8.0 and 1 mM ATP. After drying by aspiration and blotting, the plate is air dried in an incubator at 37° C. overnight. Packard TopCount adapter (Millipore) is then attached to the plate followed with addition of 120 μL Microscint 20 scintillation cocktail (Perkin Elmer) in each well. After the plate sealing, the radioactivity of the product is determined by scintillation counting on Topcount (Perkin-Elmer). IC50 determination is performed by fitting the curve of percent control activity versus the log of the inhibitor concentration using the GraphPad Prism 3.0 software.

PI3Kδ, sequence (O00329 whole entry): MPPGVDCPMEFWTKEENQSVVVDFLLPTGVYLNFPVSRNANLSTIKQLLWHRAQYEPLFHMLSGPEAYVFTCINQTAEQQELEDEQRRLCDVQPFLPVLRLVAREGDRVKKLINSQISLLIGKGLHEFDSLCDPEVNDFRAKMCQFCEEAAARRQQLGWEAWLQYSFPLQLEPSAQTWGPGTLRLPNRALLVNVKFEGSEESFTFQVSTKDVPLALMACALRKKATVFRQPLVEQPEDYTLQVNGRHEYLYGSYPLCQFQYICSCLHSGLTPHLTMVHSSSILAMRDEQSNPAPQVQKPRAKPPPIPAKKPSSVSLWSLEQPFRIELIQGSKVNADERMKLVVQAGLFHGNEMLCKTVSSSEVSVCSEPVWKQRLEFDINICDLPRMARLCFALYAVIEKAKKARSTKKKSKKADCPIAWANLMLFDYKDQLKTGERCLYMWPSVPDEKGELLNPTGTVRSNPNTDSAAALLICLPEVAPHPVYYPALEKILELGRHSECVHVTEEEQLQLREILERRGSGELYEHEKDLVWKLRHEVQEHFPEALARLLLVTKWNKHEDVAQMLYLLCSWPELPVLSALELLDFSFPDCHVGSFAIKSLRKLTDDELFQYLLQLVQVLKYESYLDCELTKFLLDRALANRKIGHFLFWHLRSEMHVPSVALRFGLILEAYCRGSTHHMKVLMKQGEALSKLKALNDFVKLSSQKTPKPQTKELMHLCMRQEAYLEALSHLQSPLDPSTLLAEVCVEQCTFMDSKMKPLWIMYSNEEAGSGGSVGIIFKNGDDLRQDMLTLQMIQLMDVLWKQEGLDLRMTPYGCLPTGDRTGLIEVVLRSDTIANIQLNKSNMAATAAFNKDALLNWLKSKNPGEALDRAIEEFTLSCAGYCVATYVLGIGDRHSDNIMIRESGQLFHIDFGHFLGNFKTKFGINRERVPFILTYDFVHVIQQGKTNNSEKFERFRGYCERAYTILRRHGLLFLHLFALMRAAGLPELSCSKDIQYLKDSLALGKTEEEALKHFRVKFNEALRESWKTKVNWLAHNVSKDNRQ
PI3Kδ, sequence (P27986 whole entry partner): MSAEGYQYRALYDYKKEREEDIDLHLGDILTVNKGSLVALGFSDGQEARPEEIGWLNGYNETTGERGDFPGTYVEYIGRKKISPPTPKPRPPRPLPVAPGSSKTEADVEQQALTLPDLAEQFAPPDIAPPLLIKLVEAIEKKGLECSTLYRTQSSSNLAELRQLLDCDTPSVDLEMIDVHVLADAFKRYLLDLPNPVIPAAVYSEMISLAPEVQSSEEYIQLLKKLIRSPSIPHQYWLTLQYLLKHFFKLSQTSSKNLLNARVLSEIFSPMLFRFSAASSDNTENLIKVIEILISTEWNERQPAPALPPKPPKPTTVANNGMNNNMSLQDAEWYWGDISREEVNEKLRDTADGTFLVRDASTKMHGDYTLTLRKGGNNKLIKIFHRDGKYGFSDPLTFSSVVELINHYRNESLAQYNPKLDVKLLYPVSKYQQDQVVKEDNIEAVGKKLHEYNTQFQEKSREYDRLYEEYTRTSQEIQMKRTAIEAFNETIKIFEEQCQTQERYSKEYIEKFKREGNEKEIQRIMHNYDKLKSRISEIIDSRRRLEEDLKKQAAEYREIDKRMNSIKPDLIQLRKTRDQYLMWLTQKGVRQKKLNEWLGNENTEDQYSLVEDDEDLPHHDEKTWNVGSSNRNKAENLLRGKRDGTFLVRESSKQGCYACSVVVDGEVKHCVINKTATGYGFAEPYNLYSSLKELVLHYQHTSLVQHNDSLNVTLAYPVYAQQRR

As to `CC(=O)N1CC(N2Cc3c(F)c(Cl)cc(C(C)n4nc(C)c5c(N)ncnc54)c3OC(C)C2=O)C1` (single isomer, unassigned) [Example 72, 4-(1-Acetylazetidin-3-yl)-9-[1-(4-amino-3-methyl-1H-pyrazolo[3,4-d]pyrimidin-1-yl)ethyl]-7-chloro-6-fluoro-2-methyl-4,5-dihydro-1,4-benzoxazepin-3(2H)-one], the IC50 (as a rule, the concentration that gives 50% inhibition) lay within 0.1 to 0.5 µM. The compound `Cc1nn(C(C)c2cc(Cl)c(C#N)c3c2OC(C)CN(C2CN(CC(C)(C)O)C2)C3)c2ncnc(N)c12` (single isomer, unassigned) [Example 55, 9-[1-(4-Amino-3-methyl-1H-pyrazolo[3,4-d]pyrimidin-1-yl)ethyl]-7-chloro-4-[1-(2-hydroxy-2-methylpropyl)azetidin-3-yl]-2-methyl-2,3,4,5-tetrahydro-1,4-benzoxazepine-6-carbonitrile] showed a 50% inhibitory concentration (IC50) not above 0.1 µM. With `CC(=O)N1CC(N2CCOc3c(C(C)n4nc(C)c5c(N)ncnc54)cc(Cl)c(C#N)c3C2)C1` (centres unmarked) [Example 46, 4-(1-Acetylazetidin-3-yl)-9-[1-(4-amino-3-methyl-1H-pyrazolo[3,4-d]pyrimidin-1-yl)ethyl]-7-chloro-2,3,4,5-tetrahydro-1,4-benzoxazepine-6-carbonitrile], the IC50 was not above 0.1 µM. In the case of `Cc1nn(C(C)c2cc(Cl)c(C#N)c3c2OC(C)CN(Cc2cccnc2)C3)c2ncnc(N)c12` (single isomer, unassigned) [Example 59, 9-[1-(4-Amino-3-methyl-1H-pyrazolo[3,4-d]pyrimidin-1-yl)ethyl]-7-chloro-2-methyl-4-(pyridin-3-ylmethyl)-2,3,4,5-tetrahydro-1,4-benzoxazepine-6-carbonitrile], the IC50 is not above 0.1 µM. In turn, `CC(=O)N1CC(N2Cc3c(F)c(Cl)cc(C(C)n4nc(C)c5c(N)ncnc54)c3OC(C)C2)C1` (single isomer, unassigned) [Example 33, 1-{1-[4-(1-Acetylazetidin-3-yl)-7-chloro-6-fluoro-2-methyl-2,3,4,5-tetrahydro-1,4-benzoxazepin-9-yl]ethyl}-3-methyl-1H-pyrazolo[3,4-d]pyrimidin-4-amine] registered an IC50 of 0.1 to 0.5 µM.

`Cc1nn(C(C)c2cc(Cl)c(C#N)c3c2OC(C)CN(C2CN(CC(N)=O)C2)C3)c2ncnc(N)c12` (single isomer, unassigned) [Example 53, 2-{3-[9-[1-(4-Amino-3-methyl-1H-pyrazolo[3,4-d]pyrimidin-1-yl)ethyl]-7-chloro-6-cyano-2-methyl-2,3-dihydro-1,4-benzoxazepin-4(5H)-yl]azetidin-1-yl}acetamide] displayed a concentration for half-maximal inhibition (IC50) not above 0.1 µM. For the compound `Cc1nn(C(C)c2cc(Cl)c(C#N)c3c2OC(C)CN(C2CN(CC(N)=O)C2)C3)c2ncnc(N)c12` (single isomer, unassigned) [Example 50, 2-{3-[9-[1-(4-Amino-3-methyl-1H-pyrazolo[3,4-d]pyrimidin-1-yl)ethyl]-7-chloro-6-cyano-2-methyl-2,3-dihydro-1,4-benzoxazepin-4(5H)-yl]azetidin-1-yl}acetamide], the concentration for half-maximal inhibition (IC50) is not above 0.1 µM. The value for `Cc1nn(C(C)c2cc(Cl)c(C#N)c3c2OC(C)CN(C2CN(S(C)(=O)=O)C2)C3)c2ncnc(N)c12` (single isomer, unassigned) [Example 93, 9-[1-(4-amino-3-methyl-1H-pyrazolo[3,4-d]pyrimidin-1-yl)ethyl]-7-chloro-2-methyl-4-[1-(methylsulfonyl)azetidin-3-yl]-2,3,4,5-tetrahydro-1,4-benzoxazepine-6-carbonitrile] was not above 0.1 µM; that for `CC(=O)N1CC(N2CCOc3c(C(C)n4nc(C)c5c(N)ncnc54)cc(Cl)c(F)c3C2)C1` (centres unmarked) [Example 34, 1-{1-[4-(1-Acetylazetidin-3-yl)-7-chloro-6-fluoro-2,3,4,5-tetrahydro-1,4-benzoxazepin-9-yl]ethyl}-3-methyl-1H-pyrazolo[3,4-d]pyrimidin-4-amine] was not above 0.1 µM; that for `Cc1nn(C(C)c2cc(Cl)c(F)c3c2OC(C)CN(C[C@@H](C)O)C3)c2ncnc(N)c12` (single isomer, unassigned) [Example 77] was not above 0.1 µM.

`Cc1nn(C(C)c2cc(Cl)c(C#N)c3c2OC(C)CN(Cc2cccnc2)C3)c2ncnc(N)c12` (single isomer, unassigned) [Example 60, 9-[1-(4-Amino-3-methyl-1H-pyrazolo[3,4-d]pyrimidin-1-yl)ethyl]-7-chloro-2-methyl-4-(pyridin-3-ylmethyl)-2,3,4,5-tetrahydro-1,4-benzoxazepine-6-carbonitrile]: the 50% inhibitory concentration (IC50) is not above 0.1 µM. Next, `COC(=O)N1CC(N2Cc3c(F)c(Cl)cc(C(C)n4nc(C)c5c(N)ncnc54)c3OC(C)C2)C1` (single isomer, unassigned) [Example 80, methyl 3-[9-[1-(4-amino-3-methyl-1H-pyrazolo[3,4-d]pyrimidin-1-yl)ethyl]-7-chloro-6-fluoro-2-methyl-2,3-dihydro-1,4-benzoxazepin-4(5H)-yl]azetidine-1-carboxylate]: not above 0.1 µM; `Cc1nn(C(C)c2cc(Cl)c(F)c3c2OC(C)CN(C2CN(S(N)(=O)=O)C2)C3)c2ncnc(N)c12` (single isomer, unassigned) [Example 81, 3-[9-[1-(4-amino-3-methyl-1H-pyrazolo[3,4-d]pyrimidin-1-yl)ethyl]-7-chloro-6-fluoro-2-methyl-2,3-dihydro-1,4-benzoxazepin-4(5H)-yl]azetidine-1-sulfonamide]: not above 0.1 µM. On to `Cc1nn(C(C)c2cc(Cl)c(C#N)c3c2OC(C)CN(CC(C)(C)O)C3)c2ncnc(N)c12` (single isomer, unassigned) [Example 65, 9-[1-(4-Amino-3-methyl-1H-pyrazolo[3,4-d]pyrimidin-1-yl)ethyl]-7-chloro-4-(2-hydroxy-2-methylpropyl)-2-methyl-2,3,4,5-tetrahydro-1,4-benzoxazepine-6-carbonitrile], for which the IC50 was not above 0.1 µM.

The compound `Cc1nn(C(C)c2cc(Cl)c(C#N)c3c2OC(C)CN(CC#N)C3)c2ncnc(N)c12` (single isomer, unassigned) [Example 108, 9-[1-(4-amino-3-methyl-1H-pyrazolo[3,4-d]pyrimidin-1-yl)ethyl]-7-chloro-4-(cyanomethyl)-2-methyl-2,3,4,5-tetrahydro-1,4-benzoxazepine-6-carbonitrile] yielded an IC50 not above 0.1 µM. `Cc1nn(C(C)c2cc(Cl)c(F)c3c2OC(C)CN(C2CN(C(=O)OC(C)(C)C)C2)C3)c2ncnc(N)c12` (single isomer, unassigned) [Example 26, tert-Butyl 3-[9-[1-(4-amino-3-methyl-1H-pyrazolo[3,4-d]pyrimidin-1-yl)ethyl]-7-chloro-6-fluoro-2-methyl-2,3-dihydro-1,4-benzoxazepin-4(5H)-yl]azetidine-1-carboxylate] yielded a half-maximal inhibitory concentration (IC50) not above 0.1 µM. For the compound `Cc1nn(C(C)c2cc(Cl)c(F)c3c2OCCN(C2CN(C(=O)N(C)C)C2)C3)c2ncnc(N)c12` (centres unmarked) [Example 73, 3-[9-[1-(4-amino-3-methyl-1H-pyrazolo[3,4-d]pyrimidin-1-yl)ethyl]-7-chloro-6-fluoro-2,3-dihydro-1,4-benzoxazepin-4(5H)-yl]-N,N-dimethylazetidine-1-carboxamide], the half-maximal inhibitory concentration (IC50) was not above 0.1 µM.

In turn, `Cc1nn(C(C)c2cc(Cl)c(C#N)c3c2OC(C)CN(C2CN(S(C)(=O)=O)C2)C3)c2ncnc(N)c12` (single isomer, unassigned) [Example 94, 9-[1-(4-amino-3-methyl-1H-pyrazolo[3,4-d]pyrimidin-1-yl)ethyl]-7-chloro-2-methyl-4-[1-(methylsulfonyl)azetidin-3-yl]-2,3,4,5-tetrahydro-1,4-benzoxazepine-6-carbonitrile] yielded an IC50 not above 0.1 µM. In turn, `CCOC(=O)N1CC(N2Cc3c(C#N)c(Cl)cc(C(C)n4nc(C)c5c(N)ncnc54)c3OC(C)C2)C1` (single isomer, unassigned) [Example 100, ethyl 3-[9-[1-(4-amino-3-methyl-1H-pyrazolo[3,4-d]pyrimidin-1-yl)ethyl]-7-chloro-6-cyano-2-methyl-2,3-dihydro-1,4-benzoxazepin-4(5H)-yl]azetidine-1-carboxylate] returned an IC50 not above 0.1 µM.

For `Cc1nn([C@@H](C)c2cc(Cl)c(F)c3c2O[C@@H](C)CN(C2CN(C[C@@H](C)O)C2)C3)c2ncnc(N)c12` [Example 86, (2R)-1-{3-[(2S)-9-[(1S)-1-(4-amino-3-methyl-1H-pyrazolo[3,4-d]pyrimidin-1-yl)ethyl]-7-chloro-6-fluoro-2-methyl-2,3-dihydro-1,4-benzoxazepin-4(5H)-yl]azetidin-1-yl}propan-2-ol], the IC50 is not above 0.1 µM.
